# PMC5218480 (PLoS ONE, 2017)
# Test system: MV-4-11 cells
# Experiment: Gene expression microarray analysis (Affymetrix PrimeView) and GSEA
# Assay type: cell-based, human
# Parameters: RFU PODN (11730768_x_at) / Fold change /veh PODN (11730768_x_at) / RFU LINC00158 (11744669_a_at) / Fold change /veh LINC00158 (11744669_a_at) / RFU DUSP10 (11751237_a_at) / Fold change /veh DUSP10 (11751237_a_at) / RFU ID3 (11757404_x_at) / Fold change /veh ID3 (11757404_x_at) / RFU PLEKHG5 (11737974_s_at) / Fold change /veh PLEKHG5 (11737974_s_at) / RFU LRRC4B (11730491_at) / Fold change /veh LRRC4B (11730491_at) / RFU GIMAP4 (11747438_a_at) / Fold change /veh GIMAP4 (11747438_a_at) / RFU KRT8 (11758183_x_at) / Fold change /veh KRT8 (11758183_x_at) / RFU CNN1 (11734310_a_at) / Fold change /veh CNN1 (11734310_a_at) / RFU VPS37D (11726825_at) / Fold change /veh VPS37D (11726825_at) / RFU C10orf10 (11716522_x_at) / Fold change /veh C10orf10 (11716522_x_at) / RFU KIR2DL2 /// KIR2DL4 /// KIR2DL5A /// KIR2DL5B /// KIR2DS1 /// KIR2DS2 /// KIR2DS3 /// KIR2DS4 /// KIR3DL3 /// KIR3DL3 /// KIR3DS1 (11738374_at) / Fold change /veh KIR2DL2 /// KIR2DL4 /// KIR2DL5A /// KIR2DL5B /// KIR2DS1 /// KIR2DS2 /// KIR2DS3 /// KIR2DS4 /// KIR3DL3 /// KIR3DL3 /// KIR3DS1 (11738374_at) / RFU C1QL1 (11718748_at) / Fold change /veh C1QL1 (11718748_at) / RFU TMPRSS4 (11747572_a_at) / Fold change /veh TMPRSS4 (11747572_a_at) / RFU HAMP (11756126_x_at) / Fold change /veh HAMP (11756126_x_at) / RFU RNFT2 (11725882_a_at) / Fold change /veh RNFT2 (11725882_a_at) / RFU NR4A2 (11747474_a_at) / Fold change /veh NR4A2 (11747474_a_at) / RFU ABCC12 (11746883_a_at) / Fold change /veh ABCC12 (11746883_a_at) / RFU TMEM136 (11760407_x_at) / Fold change /veh TMEM136 (11760407_x_at) / RFU CLDN22 /// WWC2 (11732394_at) / Fold change /veh CLDN22 /// WWC2 (11732394_at) / RFU HLA-DPB1 (11760878_x_at) / Fold change /veh HLA-DPB1 (11760878_x_at) / RFU SPINT1 (11716480_a_at) / Fold change /veh SPINT1 (11716480_a_at) / RFU GAP43 (11754022_s_at) / Fold change /veh GAP43 (11754022_s_at) / RFU A4GNT (11735810_at) / Fold change /veh A4GNT (11735810_at) / RFU PRB3 (11715151_x_at) / Fold change /veh PRB3 (11715151_x_at) / RFU TUBB4B (11761932_at) / Fold change /veh TUBB4B (11761932_at) / RFU CAPN14 (11732068_a_at) / Fold change /veh CAPN14 (11732068_a_at) / RFU TMCC2 (11721928_a_at) / Fold change /veh TMCC2 (11721928_a_at) / RFU IRGQ (11745062_a_at) / Fold change /veh IRGQ (11745062_a_at) / RFU FAM174B (11720279_a_at) / Fold change /veh FAM174B (11720279_a_at) / RFU TMPRSS4 (11748680_a_at) / Fold change /veh TMPRSS4 (11748680_a_at) / RFU FAM212B (11763350_a_at) / Fold change /veh FAM212B (11763350_a_at) / RFU PLEKHG5 (11743358_a_at) / Fold change /veh PLEKHG5 (11743358_a_at) / RFU ZSCAN30 (11745921_a_at) / Fold change /veh ZSCAN30 (11745921_a_at) / RFU CMKLR1 (11741424_a_at) / Fold change /veh CMKLR1 (11741424_a_at) / RFU LOC101060620 /// MAPK8IP1 (11723275_at) / Fold change /veh LOC101060620 /// MAPK8IP1 (11723275_at) / RFU SPTSSB (11747773_x_at) / Fold change /veh SPTSSB (11747773_x_at) / RFU PRSS12 (11739890_at) / Fold change /veh PRSS12 (11739890_at) / RFU BIN1 (11741810_x_at) / Fold change /veh BIN1 (11741810_x_at) / RFU WNT11 (11732464_a_at) / Fold change /veh WNT11 (11732464_a_at) / RFU C10orf10 (11716521_a_at) / Fold change /veh C10orf10 (11716521_a_at) / RFU C5orf56 (11738089_at) / Fold change /veh C5orf56 (11738089_at) / RFU CYB561 (11721691_x_at) / Fold change /veh CYB561 (11721691_x_at) / RFU ANKRD19P (11752326_a_at) / Fold change /veh ANKRD19P (11752326_a_at) / RFU OR2T12 /// OR2T33 /// OR2T8 (11738714_s_at) / Fold change /veh OR2T12 /// OR2T33 /// OR2T8 (11738714_s_at) / RFU VCAN (11748164_a_at) / Fold change /veh VCAN (11748164_a_at) / RFU JSRP1 (11732532_at) / Fold change /veh JSRP1 (11732532_at) / RFU KRTAP10-11 (11738290_x_at) / Fold change /veh KRTAP10-11 (11738290_x_at) / RFU MYO3A (11730013_a_at) / Fold change /veh MYO3A (11730013_a_at) / RFU EBF3 (11725865_a_at) / Fold change /veh EBF3 (11725865_a_at) / RFU CAMK2N1 (11719241_x_at) / Fold change /veh CAMK2N1 (11719241_x_at) / RFU C5orf56 (11738088_a_at) / Fold change /veh C5orf56 (11738088_a_at) / RFU OLFML3 (11715873_a_at) / Fold change /veh OLFML3 (11715873_a_at) / RFU LOC100653217 /// NTM (11731650_a_at) / Fold change /veh LOC100653217 /// NTM (11731650_a_at) / RFU MAPK11 (11762145_a_at) / Fold change /veh MAPK11 (11762145_a_at) / RFU FIZ1 (11724087_x_at) / Fold change /veh FIZ1 (11724087_x_at) / RFU OASL (11726364_x_at) / Fold change /veh OASL (11726364_x_at) / RFU SOX15 (11748057_x_at) / Fold change /veh SOX15 (11748057_x_at) / RFU CD79A (11719716_a_at) / Fold change /veh CD79A (11719716_a_at) / RFU HIST1H1D (11736915_at) / Fold change /veh HIST1H1D (11736915_at) / RFU CASKIN2 (11723855_a_at) / Fold change /veh CASKIN2 (11723855_a_at) / RFU LOC730098 (11760151_x_at) / Fold change /veh LOC730098 (11760151_x_at) / RFU OR4N2 (11742367_at) / Fold change /veh OR4N2 (11742367_at) / RFU PRRT2 (11749266_a_at) / Fold change /veh PRRT2 (11749266_a_at) / RFU SNX32 (11753110_a_at) / Fold change /veh SNX32 (11753110_a_at) / RFU CDHR5 (11726645_a_at) / Fold change /veh CDHR5 (11726645_a_at) / RFU RCAN1 (11760418_a_at) / Fold change /veh RCAN1 (11760418_a_at) / RFU FAM167A (11723789_a_at) / Fold change /veh FAM167A (11723789_a_at) / RFU FAM26E (11764081_at) / Fold change /veh FAM26E (11764081_at) / RFU ISYNA1 (11749810_s_at) / Fold change /veh ISYNA1 (11749810_s_at) / RFU ACY1 (11761880_at) / Fold change /veh ACY1 (11761880_at) / RFU 11764098_at / Fold change /veh 11764098_at / RFU SAMD14 (11745864_x_at) / Fold change /veh SAMD14 (11745864_x_at) / RFU NPB (11741838_a_at) / Fold change /veh NPB (11741838_a_at) / RFU TMPRSS6 (11731388_a_at) / Fold change /veh TMPRSS6 (11731388_a_at) / RFU KRTAP10-2 (11738614_at) / Fold change /veh KRTAP10-2 (11738614_at) / RFU ARHGAP8 /// PRR5-ARHGAP8 (11727945_x_at) / Fold change /veh ARHGAP8 /// PRR5-ARHGAP8 (11727945_x_at) / RFU KRTAP5-7 /// NADSYN1 (11734609_at) / Fold change /veh KRTAP5-7 /// NADSYN1 (11734609_at) / RFU RASL12 (11751679_a_at) / Fold change /veh RASL12 (11751679_a_at) / RFU CDKN2B (11736163_a_at) / Fold change /veh CDKN2B (11736163_a_at) / RFU PRF1 (11729649_at) / Fold change /veh PRF1 (11729649_at) / RFU, ZNF638 /// ZNF638-IT1 / Fold change vs veh, ZNF638 /// ZNF638-IT1 / RFU, PANK3 / Fold change vs veh, PANK3 / RFU, SH3YL1 / Fold change vs veh, SH3YL1 / RFU, ZEB2 / Fold change vs veh, ZEB2 / RFU, NRIP1 / Fold change vs veh, NRIP1 / RFU, PTTG1IP / Fold change vs veh, PTTG1IP / RFU, CAPN2 / Fold change vs veh, CAPN2 / RFU, MED14 / Fold change vs veh, MED14 / RFU, SNORA58 / Fold change vs veh, SNORA58 / RFU, C1orf63 / Fold change vs veh, C1orf63 / RFU, LRRFIP1 / Fold change vs veh, LRRFIP1 / RFU, NDUFAF7 / Fold change vs veh, NDUFAF7 / RFU, SLC12A2 / Fold change vs veh, SLC12A2 / RFU, IBTK / Fold change vs veh, IBTK / RFU, ESF1 / Fold change vs veh, ESF1 / Fold change vs veh, TMEM50B / RFU, TAOK1 / Fold change vs veh, TAOK1 / RFU, ACBD3 / Fold change vs veh, ACBD3 / RFU, TMA16 / Fold change vs veh, TMA16 / RFU, RWDD3 / Fold change vs veh, RWDD3 / RFU, BCAT1 / Fold change vs veh, BCAT1 / RFU, EDEM3 / Fold change vs veh, EDEM3 / RFU, TMEM33 / Fold change vs veh, TMEM33 / RFU, WDR75 / Fold change vs veh, WDR75 / RFU, AHCTF1 / Fold change vs veh, AHCTF1 / RFU, TFRC / Fold change vs veh, TFRC / RFU, ZDHHC17 / Fold change vs veh, ZDHHC17 / RFU, NOM1 / Fold change vs veh, NOM1 / RFU, ARL8B / Fold change vs veh, ARL8B / RFU, ZBTB11 / Fold change vs veh, ZBTB11 / RFU, TAMM41 / Fold change vs veh, TAMM41 / RFU, KIAA1704 /// LOC100996395 / Fold change vs veh, KIAA1704 /// LOC100996395 / RFU, ING1 / Fold change vs veh, ING1 / RFU, TRMT61B / Fold change vs veh, TRMT61B / RFU, FUBP3 / Fold change vs veh, FUBP3 / RFU, TP53 / Fold change vs veh, TP53 / RFU, TNKS2 / Fold change vs veh, TNKS2 / RFU, ZFP14 / Fold change vs veh, ZFP14 / RFU, ACTR2 / Fold change vs veh, ACTR2 / RFU, PPP3R1 / Fold change vs veh, PPP3R1 / RFU, PIK3R1 / Fold change vs veh, PIK3R1 / RFU, HNRNPA1 / Fold change vs veh, HNRNPA1 / RFU, RNF170 / Fold change vs veh, RNF170 / RFU, ZNF28 / Fold change vs veh, ZNF28 / RFU, RNGTT / Fold change vs veh, RNGTT / RFU, OGT / Fold change vs veh, OGT / RFU, BRD1 / Fold change vs veh, BRD1 / RFU, MARS / Fold change vs veh, MARS / RFU, ZNF655 / Fold change vs veh, ZNF655 / RFU, FAHD1 / Fold change vs veh, FAHD1 / RFU, BDP1 / Fold change vs veh, BDP1 / RFU, LRRCC1 / Fold change vs veh, LRRCC1 / RFU, ARID1A / Fold change vs veh, ARID1A / RFU, ZNF146 / Fold change vs veh, ZNF146 / RFU, ZNF330 / Fold change vs veh, ZNF330 / RFU, GPN3 / Fold change vs veh, GPN3 / RFU, C9orf123 / Fold change vs veh, C9orf123 / RFU, N4BP2L2 / Fold change vs veh, N4BP2L2 / RFU, ARFIP1 / Fold change vs veh, ARFIP1 / RFU, FAM179B / Fold change vs veh, FAM179B / RFU, BCL10 / Fold change vs veh, BCL10 / RFU, UHRF1BP1L / Fold change vs veh, UHRF1BP1L / RFU, BET1 / Fold change vs veh, BET1 / RFU, CNOT2 / Fold change vs veh, CNOT2 / RFU, ZNF268 / Fold change vs veh, ZNF268 / Fold change vs veh, ZNF507 / RFU, DGCR2 / Fold change vs veh, DGCR2 / RFU, WDSUB1 / Fold change vs veh, WDSUB1 / Fold change vs veh, HSP90B1 /// MIR3652 / RFU, ADSS / Fold change vs veh, ADSS / RFU, GK / Fold change vs veh, GK / RFU, ZNF148 / Fold change vs veh, ZNF148 / RFU, TAF9 / Fold change vs veh, TAF9 / RFU, SLC1A5 / Fold change vs veh, SLC1A5 / RFU, SLMO2 / Fold change vs veh, SLMO2 / RFU, ABCC4 / Fold change vs veh, ABCC4 / RFU, LOC101060439 /// RAP1B / Fold change vs veh, LOC101060439 /// RAP1B / RFU, RFX7 / Fold change vs veh, RFX7 / RFU, GTPBP10 / Fold change vs veh, GTPBP10 / RFU, CNEP1R1 / Fold change vs veh, CNEP1R1 / RFU, BIVM-ERCC5 /// ERCC5 / Fold change vs veh, BIVM-ERCC5 /// ERCC5 / RFU, ILF3 / Fold change vs veh, ILF3 / RFU 11762660_at / Fold change /veh 11762660_at / RFU VCAN (11757783_s_at) / Fold change /veh VCAN (11757783_s_at) / RFU DDX43 (11728927_at) / Fold change /veh DDX43 (11728927_at) / RFU KRT8 (11758188_x_at) / Fold change /veh KRT8 (11758188_x_at) / RFU NKD1 (11759106_at) / Fold change /veh NKD1 (11759106_at) / RFU SRD5A1 (11742802_a_at) / Fold change /veh SRD5A1 (11742802_a_at) / RFU TPSAB1 /// TPSB2 (11721975_s_at) / Fold change /veh TPSAB1 /// TPSB2 (11721975_s_at) / RFU GSTM3 (11746129_a_at) / Fold change /veh GSTM3 (11746129_a_at) / RFU IL23R (11737362_x_at) / Fold change /veh IL23R (11737362_x_at) / RFU TMEM51 (11727254_a_at) / Fold change /veh TMEM51 (11727254_a_at) / RFU PIWIL2 (11732686_x_at) / Fold change /veh PIWIL2 (11732686_x_at) / RFU ORM1 (11744905_x_at) / Fold change /veh ORM1 (11744905_x_at) / RFU CCDC152 (11743942_at) / Fold change /veh CCDC152 (11743942_at) / RFU ECM1 (11717891_a_at) / Fold change /veh ECM1 (11717891_a_at) / RFU IL23R (11748794_a_at) / Fold change /veh IL23R (11748794_a_at) / RFU TNFAIP8L3 (11732012_x_at) / Fold change /veh TNFAIP8L3 (11732012_x_at) / RFU MBOAT4 (11741988_at) / Fold change /veh MBOAT4 (11741988_at) / RFU 11764193_at / Fold change /veh 11764193_at / RFU TMEM53 (11763286_at) / Fold change /veh TMEM53 (11763286_at) / RFU MAGEB2 (11727129_at) / Fold change /veh MAGEB2 (11727129_at) / RFU TMEM200A (11744735_a_at) / Fold change /veh TMEM200A (11744735_a_at) / RFU CCDC152 (11751479_a_at) / Fold change /veh CCDC152 (11751479_a_at) / RFU FAM211A (11726209_a_at) / Fold change /veh FAM211A (11726209_a_at) / RFU RGS16 (11746705_a_at) / Fold change /veh RGS16 (11746705_a_at) / RFU VCAN (11755009_s_at) / Fold change /veh VCAN (11755009_s_at) / RFU RHOB (11743442_s_at) / Fold change /veh RHOB (11743442_s_at) / RFU RGS16 (11720943_a_at) / Fold change /veh RGS16 (11720943_a_at) / RFU RGS16 (11720944_at) / Fold change /veh RGS16 (11720944_at) / RFU, VPS4B / Fold change vs veh, VPS4B / RFU, CREB1 / Fold change vs veh, CREB1 / RFU, DNAJC13 / Fold change vs veh, DNAJC13 / RFU, GNAQ / Fold change vs veh, GNAQ / RFU, CDK5R1 / Fold change vs veh, CDK5R1 / RFU, ZRANB3 / Fold change vs veh, ZRANB3 / RFU, CUL4A / Fold change vs veh, CUL4A / RFU, CCNY / Fold change vs veh, CCNY / RFU, UFL1 / Fold change vs veh, UFL1 / RFU, COG3 / Fold change vs veh, COG3 / RFU, DIAPH2 / Fold change vs veh, DIAPH2 / RFU, SKA2 / Fold change vs veh, SKA2 / RFU, AFF3 / Fold change vs veh, AFF3 / RFU, LMF1 / Fold change vs veh, LMF1 / RFU, IPO11 / Fold change vs veh, IPO11 / RFU, DFFB / Fold change vs veh, DFFB / RFU, FOXP1 / Fold change vs veh, FOXP1 / RFU, CARD8 / Fold change vs veh, CARD8 / RFU, STRN3 / Fold change vs veh, STRN3 / RFU, ADK / Fold change vs veh, ADK / RFU, RASSF2 / Fold change vs veh, RASSF2 / RFU, WIPF1 / Fold change vs veh, WIPF1 / RFU, LARP1B / Fold change vs veh, LARP1B / RFU, RASA1 / Fold change vs veh, RASA1 / RFU, RB1 / Fold change vs veh, RB1 / RFU, PPFIA1 / Fold change vs veh, PPFIA1 / RFU, MAT2A / Fold change vs veh, MAT2A / RFU, CCT5 / Fold change vs veh, CCT5 / RFU, WDR92 / Fold change vs veh, WDR92 / RFU, CUX1 / Fold change vs veh, CUX1 / RFU, TTC7A / Fold change vs veh, TTC7A / RFU, TMEM135 / Fold change vs veh, TMEM135 / RFU, DEPTOR / Fold change vs veh, DEPTOR / RFU, CPM / Fold change vs veh, CPM / RFU, DNAJB6 / Fold change vs veh, DNAJB6 / RFU, CACNA2D3 / Fold change vs veh, CACNA2D3 / RFU, DTX4 / Fold change vs veh, DTX4 / RFU, TFCP2 / Fold change vs veh, TFCP2 / RFU, GMCL1 /// GMCL1P1 / Fold change vs veh, GMCL1 /// GMCL1P1 / RFU, AEBP2 / Fold change vs veh, AEBP2 / RFU, SNHG1 /// SNORD22 /// SNORD25 /// SNORD26 /// SNORD27 /// SNORD28 /// SNORD29 /// SNORD31 / Fold change vs veh, SNHG1 /// SNORD22 /// SNORD25 /// SNORD26 /// SNORD27 /// SNORD28 /// SNORD29 /// SNORD31 / Fold change (Aza/veh), C12orf56 (ProbeSet 11735607_a_at) / Fold change (ACY-1035/veh), C12orf56 (ProbeSet 11735607_a_at) / Fold change (Aza/veh), FGFR1OP (ProbeSet 11751329_s_at) / Fold change (ACY-1035/veh), FGFR1OP (ProbeSet 11751329_s_at) / Fold change (Aza/veh), VPS36 (ProbeSet 11739960_a_at) / Fold change (ACY-1035/veh), VPS36 (ProbeSet 11739960_a_at) / RFU SYPL1 (11715823_x_at) / Fold change /veh SYPL1 (11715823_x_at) / RFU IGFBP7 (11715501_s_at) / Fold change /veh IGFBP7 (11715501_s_at) / RFU REEP3 (11722064_at) / Fold change /veh REEP3 (11722064_at) / RFU IGLL1 (11728026_x_at) / Fold change /veh IGLL1 (11728026_x_at): dose or concentration left out as unconfirmed
# Conditions: ProbeSet 11757268_x_at; LIST B
smiles,measurement,value
Nc1ccc(-c2cccs2)cc1NC(=O)c1ccc2c(c1)cc(C1CC1)n2CCN1CCOCC1 [ACY-1035],"Fold change vs veh, HNRNPA1",0.97
